According to patent US6998233B2, “Methods for ligand discovery” (Sunesis Pharmaceuticals, Inc., priority 1998, dated 2006):
Where two headings read alike, the source gives them in different places. Each block holds one compound with its values, some of them ahead of it.

Experiments:
E. coli TS = E. coli TS (Escherichia coli, UniProt P0A884); test: Thymidylate synthase inhibition, enzymatic assay (Michaelis-Menten kinetics) on tether-free analogs; assay type: biochemical
From the text: TS is an ideal validating target for several reasons. […] Second, a simple colorimetric assay exists for determining whether a potential ligand binds to TS. This assay depends on the rate of conversion of 5,10-CH2—H4folate to H2folate in the presence of dUMP. A second assay for binding is also spectrophotometric and relies on competition with pyridoxal-5′-phosphate (“PLP”), which forms a complex with TS with a unique spectral signature.
The TS chosen for the purposes of illustration is the E. coli TS. […] The E. coli TS includes four other cysteines but these are not conserved among other TS enzymes and are buried and thus not accessible. However, if one or more of these cysteines were reactive toward disulfides, then mutant versions of these enzymes can be used where these cysteines are mutated to another amino acid such as alanine.
In one illustrative example, the tethering experiment is performed in the presence of a known substrate. […] In contrast, a ligand candidate that lacks an inherent binding affinity or cysteamine would be easily displaced by the substrate. Another illustrative example is traditional enzymatic assays on the tether-free analog. For example, the affinity of the [drawing 14] R^c portion of the ligand fragment was determined using Michaelis-Mention kinetics.
The inhibition constants of the untethered versions of the selected ligand candidates were determined.

caspase-3 [1] = target: T1, caspase-3 (Homo sapiens, UniProt P42574); test: Caspase-3 inhibition (Ki); assay type: biochemical; conditions: for change of binding affinity relative to compound 18: removal of hydroxyl group / hydroxyl and acid moiety
T1 sequence (P42574 29-175 limits assumed): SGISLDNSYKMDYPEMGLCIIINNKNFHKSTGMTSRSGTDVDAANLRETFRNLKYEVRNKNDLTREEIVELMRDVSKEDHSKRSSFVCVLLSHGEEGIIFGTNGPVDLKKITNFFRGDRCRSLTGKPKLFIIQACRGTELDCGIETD
T1 sequence (P42574 176-277 limits assumed): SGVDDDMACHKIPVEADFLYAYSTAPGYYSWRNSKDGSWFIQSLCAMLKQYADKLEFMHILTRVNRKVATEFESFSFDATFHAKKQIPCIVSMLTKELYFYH

[2] = target: T2, target-extender complex 13′ (caspase-3 modified with extender 13) (Homo sapiens, UniProt P42574); test: Tethering with extender, target-extender complex 13′; assay type: binding; conditions: library of about 10,000 ligand candidates
T2 construct: made in house
T2 sequence (P42574 29-175): T1 sequence (P42574 29-175 limits assumed)
T2 sequence (P42574 176-277): T1 sequence (P42574 176-277 limits assumed)
From the text: (§1) Target-extender complexes 13′ and 14′ were each used in the tethering method against a library of about 10,000 ligand candidates. An illustrative example of a selected ligand-candidate using target-extender complex 13′ is [drawing 39]
(§2) This example describes the modification of caspase-3 with extender 13. Caspase-3 was cloned, overexpressed, and purified using standard techniques. […] The protein was concentrated in a Ultrafree 5 MWCO unit and the buffer exchanged to 0.1 M TES pH 7.5 using a Nap-5 column.

[3] = target: T3, target-extender complex 14′ (caspase-3 modified with extender 14) (Homo sapiens, UniProt P42574); test: Tethering with extender, target-extender complex 14′; assay type: binding; conditions: library of about 10,000 ligand candidates
T3 construct: made in house
T3 sequence (P42574 29-175): T1 sequence (P42574 29-175 limits assumed)
T3 sequence (P42574 176-277): T1 sequence (P42574 176-277 limits assumed)
From the text: as §1

[4] = assay type: physicochemical
Protocol: The thiirane (17 mg, 0.047 mmol) was dissolved in dry DCM (5 ml), chilled in an ice-water bath, and treated with 5 ml trifluoroacetic acid. The reaction was allowed to proceed on ice for 40 minutes at which point it was evaporated to dryness and purified using reverse phase HPLC to yield compound 40 as a white solid (1.8 mg, 0.0058 mmol, 13%, ES (+) MS m/z=332 (M+Na)). […] It is generally preferred that the conjugation reaction of this extender to the active site thiol of caspases is performed for only 2–5 minutes at pH 6 and at low stoichiometries with respect to enzyme (1–3 equivalents)

caspase-3 [5] = target: T1, caspase-3; test: Modification of caspase-3 with extender (mass-spectroscopy); assay type: binding; conditions: ambient temperature, 3.5 hours
From the text: as §2

[6] = Table 2, glutamate-grafted N-tosyl-proline derivatives
[7] = untethered versions of selected ligand candidates, Example 6

Sequence of E. coli TS (P0A884 whole entry): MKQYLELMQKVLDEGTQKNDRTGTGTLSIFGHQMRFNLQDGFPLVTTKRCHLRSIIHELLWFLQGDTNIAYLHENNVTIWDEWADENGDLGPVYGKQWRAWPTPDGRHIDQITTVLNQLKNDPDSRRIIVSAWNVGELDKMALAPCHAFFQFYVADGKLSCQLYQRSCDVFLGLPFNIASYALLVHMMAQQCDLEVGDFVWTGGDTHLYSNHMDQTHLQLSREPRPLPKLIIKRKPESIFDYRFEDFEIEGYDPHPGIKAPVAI

SMILES: NC(=O)[C@H](CCC(=O)O)NC(=O)c1ccc(S(=O)(=O)N2CCCC2C(=O)O)cc1 (stereo partly shown) [compound 10]
Ki (E. coli TS; [6]): 378 ± 69 µM

decrease in binding affinity versus compound I (caspase-3 [1]; addition of salicylate sulfonamide moiety to compound I): ~300 fold
SMILES: CC(C)[C@H](NC(=O)[C@H](CCC(=O)O)NS(=O)(=O)c1ccc(O)c(C(=O)O)c1)C(=O)N[C@H](C=O)CC(=O)O [compound II]

Ki (caspase-3 [1]): 0.33 µM
SMILES: CS(=O)(=O)c1ccc(C(=O)NCCCS(=O)(=O)Cc2cccc(S(=O)(=O)N[C@H](C=O)CC(=O)O)c2)s1 [compound 22]

SMILES: O=C(O)CCC[C@H](NC(=O)c1ccc(S(=O)(=O)N2CCCC2C(=O)O)cc1)C(=O)O (stereo partly shown) [compound 7]
Ki (E. coli TS; [6]): 23 ± 6 µM

selection in tethering [2]: selected | selection in tethering [3]: not selected
SMILES: NCCSSCCNS(=O)(=O)c1ccc(O)c(C(=O)O)c1 [ligand candidate 15]

SMILES: O=C(O)COc1ccc(/C=N/OCCCO/N=C/c2ccc(S(=O)(=O)N3CCCC3C(=O)O)cc2)cc1 (stereo not shown) [compound 2]
Ki (E. coli TS; [7]): ~55 µM

SMILES: O=C(O)COc1ccc(/C=N\OCCCCCCO/N=C/c2ccc(S(=O)(=O)N3CCCC3C(=O)O)cc2)cc1 (stereo not shown) [compound 3]
Ki (E. coli TS; [7]): ~40 µM

selection in tethering [2]: not selected | selection in tethering [3]: not selected
SMILES: NCCSSCCNS(=O)(=O)c1cccc(C(=O)O)c1 [ligand candidate 17]

Ki (caspase-3 [1]): 0.051 µM
SMILES: CC(=O)N[C@@H](CCC(=O)O)C(=O)N[C@H](C(=O)N[C@H](C=O)CC(=O)O)C(C)C [compound I, reference compound]

SMILES: O=C(O)C[C@H](NC(=O)OCc1ccccc1)C(=O)C1CS1 (stereo partly shown) [compound 40]
stability as solution in methanol [4]: stable for months | stability in DMSO [4]: not stable

SMILES: O=C(O)CCCCC[C@H](NC(=O)c1ccc(S(=O)(=O)N2CCCC2C(=O)O)cc1)C(=O)O (stereo partly shown) [compound 9]
Ki (E. coli TS; [6]): 14 ± 6 µM

Ki (caspase-3 [1]): ~0.16 µM | Ki better than compound 18 (caspase-3 [1]): more than 10 fold | Ki (caspase-3 [1]; Table 4): 0.16 µM | improvement of binding by addition of the salicylate sulfonamide (caspase-3 [1]; versus salicylate sulfonamide-less fragment): about 200 fold
SMILES: O=C[C@H](CC(=O)O)NC(=O)c1ccc(CNS(=O)(=O)c2ccc(O)c(C(=O)O)c2)cc1 [compound 21]

SMILES: O=C(O)C[C@H](NC(=O)c1ccc(S(=O)(=O)N2CCCC2C(=O)O)cc1)C(=O)O (stereo partly shown) [compound 6]
Ki (E. coli TS; [6]): 242 ± 3 µM

modification of caspase 3 large subunit (caspase-3 [5]): complete modification
SMILES: CC(=O)SCC(=O)N[C@@H](CC(=O)O)C(=O)COC(=O)c1c(Cl)cccc1Cl [compound 13, 2,6-Dichloro-benzoic acid 3-(2-acetylsulfanyl-acetylamino)-4-carboxy-2-oxo-butyl ester]

SMILES: Cc1ccc(S(=O)(=O)N2CCC[C@@H]2C(=O)O)cc1 [compound 1, N-tosyl-D-proline]
mode of inhibition (E. coli TS; competed with the natural substrate dUMP): weak but competitive inhibitor | Ki (E. coli TS; free acid, Michaelis-Menten kinetics): 1100 ± 250 µM

selection in tethering [2]: not selected | selection in tethering [3]: selected
SMILES: CS(=O)(=O)c1ccc(C(=O)NCCSSCCN)s1 [ligand candidate 16]

SMILES: NC(=O)CC[C@H](NC(=O)c1ccc(S(=O)(=O)N2CCCC2C(=O)O)cc1)C(=O)O (stereo partly shown) [compound 11]
Ki (E. coli TS; [6]): 61 ± 14 µM

Ki (caspase-3 [1]; Table 4): 15.3 µM | change of binding affinity relative to compound 18 (caspase-3 [1]): reduced the affinity by a factor of five
SMILES: O=C[C@H](CC(=O)O)NC(=O)CCCCCNS(=O)(=O)c1cccc(C(=O)O)c1 [compound 19]

SMILES: O=C(O)CCCC[C@H](NC(=O)c1ccc(S(=O)(=O)N2CCCC2C(=O)O)cc1)C(=O)O (stereo partly shown) [compound 8]
Ki (E. coli TS; [6]): 32 ± 2 µM

SMILES: O=C(O)CCCNC(=O)c1ccc(S(=O)(=O)N2CCCC2C(=O)O)cc1 (stereo not shown) [compound 12]
Ki (E. coli TS; [6]): 246 ± 46 µM

Ki (caspase-3 [1]; Table 4): > 100 µM | change of binding affinity relative to compound 18 (caspase-3 [1]): ablated binding affinity entirely
SMILES: O=C[C@H](CC(=O)O)NC(=O)CCCCCNS(=O)(=O)c1ccccc1 [compound 20]
